The source of these data is patent US11426362B2, “Oral cannabinoid formulations” (GW Research Limited, priority 2017, dated 2022).

The structures appear in SMILES notation.

Series [1] in a line: Antioxidant screening in the formulation. Type of series: physicochemical. To be noted: alpha-tocopherol at 0.5% concentration in surfactant phase; ascorbic acid in aqueous phase. The source says:
Alpha tocopherol and ascorbic acid were screened for their effectiveness for use within the formulation. Ascorbic acid was used in the aqueous phase whereas the alpha tocopherol was used in the surfactant phase in terms of order of addition.

The conditions of series [2]: cited from earlier work.
The conditions of series [3]: oral and parenteral administration in animals; cited from earlier work.

For `Cc1c(C)c2c(c(C)c1O)CC[C@@](C)(CCC[C@H](C)CCC[C@H](C)CCCC(C)C)O2` [alpha-tocopherol], in series [1], the “appearance of solutions containing the antioxidant” value was “hazy”.

For `OC[C@H]1O[C@H](O[C@]2(CCl)O[C@H](CCl)[C@@H](O)[C@@H]2O)[C@H](O)[C@@H](O)[C@H]1Cl` [Sucralose], in series [2] (pediatric population), the ADI limit was 5 mg/kg/day.

As for `O=C1O[C@H]([C@@H](O)CO)C(O)=C1O` [ascorbic acid], in series [1], the “appearance of solutions containing the antioxidant” value is listed as “clear colourless solutions”.

`COC(=O)c1ccc(O)cc1` [methylparaben, methyl parahydroxybenzoate]: the acute toxicity entry in series [3] is given as “practically non-toxic”.

For the molecule `CCCOC(=O)c1ccc(O)cc1` [propyl paraben, propyl parahydroxybenzoate], the “permitted daily exposure (PDE)” value in series [2] (adults and pediatric patients) is recorded as 2 mg/kg/day. For the same molecule, the acute toxicity result in series [3] was “relatively non-toxic”.
